Assay results published in patent US20130090315A1 (priority 2011, published 2013).

How the values were obtained:
[1] = tested on: rats that have suffered a concussion; test: Morris Water Maze latency to platform in mTBI (concussion) model; format: in vivo; conditions: versus vehicle-injured rats, FIG. 8
rats suffering from TBI = conditions: 16 mg/kg, 72 hours post-injury, FIG. 1, p<0.05; cited from earlier work
[2] = tested on: moderate to severe TBI patients; conditions: cited from earlier work
males = conditions: in males; cited from earlier work
rats following injury = conditions: cited from earlier work
glutathione reductase = conditions: 72 hours post-injury, compared to all other groups, FIG. 2, p<0.01; cited from earlier work
[3] = target: T1, progesterone receptor (PR) (Homo sapiens, UniProt P06401); conditions: cited from earlier work
T1 sequence (P06401 1-933): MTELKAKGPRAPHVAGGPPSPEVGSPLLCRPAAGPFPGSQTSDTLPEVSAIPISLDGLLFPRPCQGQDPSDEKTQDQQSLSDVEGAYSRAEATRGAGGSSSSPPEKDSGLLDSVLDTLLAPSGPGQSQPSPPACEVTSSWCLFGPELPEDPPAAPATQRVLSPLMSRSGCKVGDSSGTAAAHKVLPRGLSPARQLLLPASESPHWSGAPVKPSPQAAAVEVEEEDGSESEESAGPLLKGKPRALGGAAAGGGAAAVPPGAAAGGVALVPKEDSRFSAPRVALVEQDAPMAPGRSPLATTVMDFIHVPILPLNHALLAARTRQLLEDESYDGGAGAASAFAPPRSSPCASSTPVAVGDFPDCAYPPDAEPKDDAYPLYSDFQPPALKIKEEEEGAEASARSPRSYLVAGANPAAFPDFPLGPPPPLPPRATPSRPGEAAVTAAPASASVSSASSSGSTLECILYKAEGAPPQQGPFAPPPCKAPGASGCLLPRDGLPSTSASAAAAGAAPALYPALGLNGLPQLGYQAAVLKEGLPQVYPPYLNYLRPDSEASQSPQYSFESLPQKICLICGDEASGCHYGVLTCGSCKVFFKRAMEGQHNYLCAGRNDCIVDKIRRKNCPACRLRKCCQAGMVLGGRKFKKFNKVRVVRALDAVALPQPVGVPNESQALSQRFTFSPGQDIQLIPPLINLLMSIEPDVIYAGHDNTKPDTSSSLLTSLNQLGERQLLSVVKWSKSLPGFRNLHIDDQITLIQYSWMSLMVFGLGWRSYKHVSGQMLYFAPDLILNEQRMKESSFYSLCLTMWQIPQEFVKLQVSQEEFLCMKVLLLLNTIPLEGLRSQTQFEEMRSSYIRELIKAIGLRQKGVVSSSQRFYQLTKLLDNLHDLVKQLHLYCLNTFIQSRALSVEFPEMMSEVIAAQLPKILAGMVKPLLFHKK

| Structure (SMILES) | latency to platform, post-acute administration ([1]; 15 minutes post mTBI) | latency to platform, prophylactic administration ([1]; 15 minutes prior to mTBI) | brain water content (measure of edema) (rats suffering from TBI) | 30 days post-injury outcomes (Glasgow Outcome Scale-Extended, Disability Rating Scale), moderate TBI ([2]; moderate TBI patients, 30 days post-injury) | reduction in mortality ([2]; moderate to severe TBI patients, 72 hours of continuous intravenous Prog) [%] | 30 days post-injury outcomes (Glasgow Outcome Scale-Extended, Disability Rating Scale), severe brain injuries ([2]; patients with severe brain injuries, 30 days post-injury) | neurological outcomes at six months ([2]; severe TBI patients, six months) | conversion of testosterone to dihydrotestosterone (males) | size of reproductive organs (males) | spermatogenesis (males) | edema in both rodent sexes (rats following injury; both rodent sexes) | factors of cell death (caspase-3) and gliosis (GFAP) (rats following injury) | inflammatory factors (TNF-α and IL-β) (rats following injury) | Neurological Severity Score (motor and cognitive functioning) (rats following injury; rats) | anti-oxidant activity of glutathione reductase (glutathione reductase) | activation of PR-mediated transcription [3] |
| --- | --- | --- | --- | --- | --- | --- | --- | --- | --- | --- | --- | --- | --- | --- | --- | --- |
| CC(=O)[C@H]1CC[C@H]2[C@@H]3CCC4=CC(=O)CC[C@]4(C)[C@H]3CC[C@]12C [Prog, progesterone] | decreases latency to platform | decreases latency to platform | normalizes brain water content | better outcomes | 50 | little measurable difference | better neurological outcomes long-term | inhibits the conversion of testosterone to dihydrotestosterone | reduces the size of reproductive organs | suppresses spermatogenesis | effectively attenuates edema | decreased of the presence of the factors of cell death (caspase-3) and gliosis (GFAP) | inhibiting inflammatory factors (TNF-α and IL-β) | significant improvements |  |  |
| CC(=O)[C@@H]1CC[C@@H]2[C@H]3CCC4=CC(=O)CC[C@@]4(C)[C@@H]3CC[C@]21C [ent-Prog, ent-progesterone] |  |  | normalizes brain water content |  |  |  |  |  |  |  |  |  |  |  | significantly increases the anti-oxidant activity of glutathione reductase | does not activate PR-mediated transcription |
| CC(=O)[C@H]1CC[C@H]2[C@@H]3CC[C@H]4C[C@H](O)CC[C@]4(C)[C@H]3CC[C@]12C [ALLO, allopregnanolone] |  |  | normalizes brain water content |  |  |  |  |  |  |  |  | decreased of the presence of the factors of cell death (caspase-3) and gliosis (GFAP) |  |  |  |  |
